The nature of this data set: Permeability of compounds in Caco-2 assay (bi-directional transport). The settings on record: human, pH 7.4; for Papp A→B at 2 h, 2 μM / Papp B→A at 2 h, 2 μM: Caco-2 monolayer, pH 7.40; for Papp A→B at 2 h, 2 μM: A to B; for Papp B→A at 2 h, 2 μM: B to A. The class given is in vitro ADME. As to the method:
Caco-2 cells purchased from ATCC were seeded onto […] (PET) in 96-well Corning Insert plates at 1×10^5 cells/cm2, and refreshed medium every 4˜5 days until to the 21st to 28th day for confluent cell monolayer formation. The transport buffer in the study was HBSS with 10.0 mM HEPES at pH 7.40±0.05. Test compound was tested at 2.00 μM bi-directionally in duplicate. Digoxin was tested at 10.0 μM bi-directionally in duplicate, while nadolol and metoprolol were tested at 2.00 μM in A to B direction in duplicate. Final DMSO concentration was adjusted to less than 1%. The plate was incubated for 2 hours in CO2 incubator at 37±1° C., with 5% CO2 at saturated humidity without shaking. […] For nadolol and metoprolol, 200 μL supernatant solution was diluted with 600 μL ultra-pure water for LC-MS/MS analysis. For digoxin and test compounds, 200 μL supernatant solution was diluted with 200 μL ultra-pure water for LC-MS/MS analysis Concentrations of test and control compounds in starting solution, donor solution, and receiver solution were quantified by LC-MS/MS methodologies, using peak area ratio of analyte/internal standard. After transport assay, lucifer yellow rejection assay was applied to determine the Caco-2 cell monolayer integrity. The apparent permeability coefficient Papp (cm/s) was calculated using the equation: Papp=(dCr/dt)×Vr/(A×C0) Where dCr/dt is the cumulative concentration of compound in the receiver chamber as a function of time (μM/s); Vr is the solution volume in the receiver chamber (0.075 mL on the apical side, 0.25 mL on the basolateral side); A is the surface area for the transport, i.e. 0.0804 cm2 for the area of the monolayer, CO is the initial concentration in the donor chamber (μM).
(In general: Caco-2 monolayers are a common model of the intestinal barrier.)

What is called Papp is the rate of passage across a membrane or cell layer, normalised by area and donor concentration. The Papp A→B is the apparent permeability from the apical to the basolateral side of a cell layer. In general, Papp B→A refers to the apparent permeability from the basolateral to the apical side of a cell layer. A word on the efflux ratio: it is the permeability from basolateral to apical divided by that in the opposite direction, in the common usage. For the molecule `CC(C)C(=O)OC[C@H]1O[C@@H](n2ccc(NO)nc2=O)[C@@H]2OC(=O)O[C@@H]21` [Compound 1, ((3aR,4R,6R,6aR)-6-((Z)-4-(hydroxyimino)-2-oxo-3,4-dihydropyrimidin-1(2H)-yl)-2-oxotetrahydrofuro[3,4-d][1,3]dioxol-4-yl)methyl isobutyrate], the Papp A→B at 2 h, 2 μM was 0.565 ×10⁻⁶ cm/s and the Papp B→A at 2 h, 2 μM was 2.04 ×10⁻⁶ cm/s. The Papp at 2 h, 2 μM (Caco-2, binning criteria Low/Moderate/High, read-out: Papp (permeability bin)) fell in the range of 2 to 20 ×10⁻⁶ cm/s. In addition, the efflux ratio at 2 h, 2 μM (Papp(BA)/Papp(AB), Caco-2) came to 3.61.
With `CC(C)C(=O)OC[C@H]1O[C@@H](n2ccc(NO)nc2=O)[C@H](O)[C@@H]1O` [molnupiravir, reference compound], the Papp A→B at 2 h, 2 μM was less than 0.293 ×10⁻⁶ cm/s and the Papp B→A at 2 h, 2 μM came out at 0.527 ×10⁻⁶ cm/s.

For the origin of these results see patent publication US11865132B2, “Nucleoside derivatives and methods of use thereof” (Ascletis BioScience Co., Ltd., priority 2021, dated 2024).
